# Assay results from patent publication US20230235301A1, “Compounds and Methods for Treating, Ameliorating, or Preventing Herpes Ocular Keratitis” (THE TRUSTEES OF THE UNIVERSITY OF PENNSYLVANIA, priority 2020, published 2023).
# Positions of bridges follow the written chain, without caps; N, C: chain ends. Non-standard residues stand in square brackets, D forms with d. Residues, ends and D or L forms follow the SMILES beside them. No end group written: not given here. R8 = C=CCCCCCC[C@@](C)(N)C(=O)O; S5 = C=CCCC[C@](C)(N)C(=O)O
# How the values were obtained:
# [1] = system: HSV-1; experiment: microbe, parasite or virus in culture; assay type: cell-based; details: 1 h
# Description: (§1) Cells with ~90% confluence in 48-well plates were infected by absorbing virus (~100 PFU/well) for 1 h in 100 µL growth medium followed by adding 200 µL culture medium containing DMSO vehicle or serially diluted peptides or Acyclovir (Tocris Bioscience-Fisher Scientific) to each well of the plate. DMSO was maintained at 1% throughout the treatment. Cells were subsequently fixed and stained with 300 µL PBS containing 4% formaldehyde and 0.2% crystal violet overnight at room temperature. HSV-1 plaques were quantified at ~55 h post-infection of Vero cells. VV (WR strain) infection of BSC-1 cells was analyzed for plaque formation after 24 h. The plaque reduction assays were performed in duplicate and independently repeated twice. Cells were stained, and plaques counted under a dissecting microscope. Data were plotted on the GraphPad Prism.
# Standard viral plaque reduction assays were conducted in Vero cells to determine if any of the five stapled peptides (S-pep1/3/4/7/8) that were able to block processive DNA synthesis, could also block HSV-1 infection. To minimize possible interference of HSV-1 cell attachment and entry by the peptides, cells were first infected by absorbing the virus for 1 h, followed by treatment with peptides at serial dilutions. […] The EC50 values of both S-pep3 and S-pep8 were approximately 100 µM (FIG. 15C and FIG. 15F). Additionally, S-pep4 was toxic at 12.5 µM, which precluded further optimization.
# [2] = Cytotoxicity and cell viability assays (ATP content, LDH leakage) in Vero cells; assay type: cell-based; details: African green monkey, 24 h treatment
# Description: (§2) Cells were grown in 96-well plates to ~80% confluence and treated with peptides at different concentrations in 150 µL growth medium containing 1% DMSO. At 24 h post-treatment, 100 µL of the culture medium was used for the lactate dehydrogenase (LDH) cytotoxicity assay. In addition, the cells from the same treatment were assessed with an ATP-based cell viability assay. Briefly, after the growth medium was completely removed, the cells were lysed in 100 µL of 1% Triton X-100 in PBS per well at room temperature. After 10 min, 5 µL of lysate was used for ATP-based luciferase/luminescence assay according to the manufacturer’s protocol (Invitrogen, USA). The assays were performed in triplicate and independently repeated twice.
# [3] = system: vaccinia virus (VV, WR strain); assay type: cell-based; details: BSC-1 cells, plaques after 24 h
# [4] = system: HSV-1 viral DNA (UL42 gene); experiment: HSV-1 DNA replication in infected Vero cells (UL42 gene PCR); assay type: cell-based
# Description: Confluent Vero cells in 48-well plates were infected by absorbing 10^5 PFU of HSV-1 (MOI ~1) for 1 h in 100 µL of DMEM medium containing 5% FBS. Unabsorbed virus was removed by washing the wells 4 times with PBS. Cells were then treated with S-pep7B (SEQ ID NO:32) peptide in triplicate at different dilutions in 300 µL growth medium containing 1% DMSO. At 4 h post-treatment, cells of each triplicate treatment were combined and lysed with 20 mM Tris buffer (pH 7.5) containing 20 mM EDTA, 0.5% SDS, and 0.5 mg/mL proteinase K. Total DNA was then prepared from the lysed cells with phenol/chloroform extraction and ethanol precipitation, and used for UL42 gene amplification by PCR using the primers described above for plasmid construction. After agarose gel electrophoresis, UL42 DNA levels were quantitated using an image capture and analysis system (G:Box Chemi HR, Syngene) and normalized to that of the cellular house-keeping gene GAPDH (glyceraldehyde-3-phosphate dehydrogenase), which was amplified using primers (forward: 5′-[…]-3′ (SEQ ID NO:55), and reverse: 5′-[…]-3′) (SEQ ID NO:56). The assays were independently repeated twice.
# Experiments were subsequently performed to determine if the HSV-1 antiviral activity of S-pep7B was specifically due to the inhibition of viral DNA replication. […]
# [5] = ATP-based cytotoxicity in human primary corneal epithelial cells; assay type: cell-based; details: read-out: CC50 by ATP measurement
# Description: as §2
# [6] = system: HSV-1; experiment: HSV-1 infection of human 3D organotypic corneal culture; assay type: cell-based; details: 25 µM, 5 days treatment, 3D organotypic corneal tissue
# Text: Cultures were assembled with human dermal fibroblasts isolated from newborn foreskins and primary human corneal epithelial cells isolated from unused sclerolimbal rings from corneal transplants. After three weeks, organotypic cultures with differentiated corneal epithelial cells overlaying a layer of fibroblasts are established, reproducing the organization of the anterior corneal surface (FIG. 23A).
# The assembled 3D organotypic corneal culture was infected with HSV-1 by gently abrading the surface and topically applying 10^6 PFU/mL of HSV-1. After 1 h, unabsorbed virus was removed, and the culture was incubated in medium containing 25 µM S-pep7B in 0.5% DMSO. Treatment occurred over a period of 5 days, in which the medium containing S-pep7B was refreshed every other day. The corneal tissues were examined microscopically each day. At the end of the treatment period, the 3D tissue was cut in half, using the first half to measure the virus titer by plaque assay and the other half for histological examination.
# [7] = system: Vero cells; experiment: Cytotoxicity observed in the plaque reduction assays; assay type: cell-based, African green monkey
# Description: as §1
# Cellular cytotoxicity of the N-terminal substituted stapled peptides was also assessed. S-pep7A caused observable cell death at 50 µM in the plaque assays.
# [8] = target: T1, HSV-1 Processivity Factor (UL42) (HSV-1 (strain KOS), UniProt P10226 1-488); experiment: cell-based or functional assay
# T1 sequence: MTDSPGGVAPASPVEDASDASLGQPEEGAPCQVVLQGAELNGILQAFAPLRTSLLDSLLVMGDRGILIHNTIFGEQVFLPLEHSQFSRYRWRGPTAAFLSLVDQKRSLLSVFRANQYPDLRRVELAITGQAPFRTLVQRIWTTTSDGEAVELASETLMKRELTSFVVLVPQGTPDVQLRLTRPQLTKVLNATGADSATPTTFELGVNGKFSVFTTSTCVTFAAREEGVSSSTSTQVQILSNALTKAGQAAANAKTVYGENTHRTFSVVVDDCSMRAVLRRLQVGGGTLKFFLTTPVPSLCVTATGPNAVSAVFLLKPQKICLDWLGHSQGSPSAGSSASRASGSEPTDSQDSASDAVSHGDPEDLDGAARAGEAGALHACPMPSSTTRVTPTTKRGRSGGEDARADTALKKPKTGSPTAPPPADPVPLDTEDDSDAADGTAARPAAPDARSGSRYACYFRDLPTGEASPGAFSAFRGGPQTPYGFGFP
molecule,measurement,setting,value
"CC(=O)N[C@H](C(=O)N[C@H](C(=O)N[C@H](C(=O)N[C@@H](CCCNC(=N)N)C(=O)N[C@@H](CCCNC(=N)N)C(=O)N[C@@]1(C)CCCC=CCCC[C@@](C)(C(=O)N[C@@H](Cc2ccccc2)C(=O)N[C@@H](CC(=O)O)C(=O)N[C@H](C(=O)N[C@@H](CC(C)C)C(=O)N[C@@H](C)C(=O)O)[C@@H](C)O)NC(=O)[C@H](CCCNC(=N)N)NC(=O)[C@H](Cc2c[nH]cn2)NC(=O)[C@H](CC(C)C)NC1=O)[C@@H](C)O)C(C)C)C(C)C [S-pep7B, Ac-VVTRRXLHRXFDTLA] (Ac-VVTRR[S5]LHR[S5]FDTLA-OH; staple 6-10; C-terminus assumed)",EC50,[1],9.8 µM
same,CC50 at 24 h,"[2]; read-out: CC50, LDH leakage",126 µM
same,CC50 at 24 h,"[2]; read-out: CC50, intracellular ATP content",114 µM
same,inhibition of VV infection of cells,[3],did not inhibit
same,viral DNA level relative to time point 0 h,"[4]; 50 µM, 4 h post-treatment",completely suppressed
same,UL42 DNA levels in infected cells,"[4]; MOI ~1, 4 h post-treatment, increasing concentrations, normalized to GAPDH",greatly reduced
same,CC50 at 24 h,[5],31.2 µM
same,HSV-1 structural gB protein (immunostaining),[6],complete absence
same,nuclear morphology (DAPI staining),[6],unremarkable nuclear morphology
same,concentration at which toxicity / cell death was observed in the plaque assays,[7],no visible cytotoxicity
"CC(=O)N[C@@H](CCCNC(=N)N)C(=O)N[C@H](C(=O)N[C@@H](CCCNC(=N)N)C(=O)N[C@@H](CCCNC(=N)N)C(=O)N[C@@]1(C)CCCC=CCCC[C@@](C)(C(=O)N[C@@H](Cc2ccccc2)C(=O)N[C@@H](CC(=O)O)C(=O)N[C@H](C(=O)N[C@@H](CC(C)C)C(=O)N[C@@H](C)C(=O)O)[C@@H](C)O)NC(=O)[C@H](CCCNC(=N)N)NC(=O)[C@H](Cc2c[nH]cn2)NC(=O)[C@H](CC(C)C)NC1=O)[C@@H](C)O [S-pep7C, Ac-RTRRXLHRXFDTLA] (Ac-RTRR[S5]LHR[S5]FDTLA-OH; staple 5-9; C-terminus assumed)",concentration at which toxicity / cell death was observed in the plaque assays,[7],5 µM
"CC(=O)N[C@@H](CCCNC(=N)N)C(=O)N[C@@H](CCCNC(=N)N)C(=O)N[C@H](C(=O)N[C@@H](CCCNC(=N)N)C(=O)N[C@@H](CCCNC(=N)N)C(=O)N[C@@]1(C)CCCC=CCCC[C@@](C)(C(=O)N[C@@H](Cc2ccccc2)C(=O)N[C@@H](CC(=O)O)C(=O)N[C@H](C(=O)N[C@@H](CC(C)C)C(=O)N[C@@H](C)C(=O)O)[C@@H](C)O)NC(=O)[C@H](CCCNC(=N)N)NC(=O)[C@H](Cc2c[nH]cn2)NC(=O)[C@H](CC(C)C)NC1=O)[C@@H](C)O [S-pep7D, Ac-RRTRRXLHRXFDTLA] (Ac-RRTRR[S5]LHR[S5]FDTLA-OH; staple 6-10; C-terminus assumed)",concentration at which toxicity / cell death was observed in the plaque assays,[7],5 µM
"CC(=O)N[C@H](C(=O)N[C@H](C(=O)N[C@@H](CCCNC(=N)N)C(=O)N[C@@H](CCCNC(=N)N)C(=O)N[C@@]1(C)CCCC=CCCC[C@@](C)(C(=O)N[C@@H](Cc2ccccc2)C(=O)N[C@@H](CC(=O)O)C(=O)N[C@H](C(=O)N[C@@H](CC(C)C)C(=O)N[C@@H](C)C(=O)O)[C@@H](C)O)NC(=O)[C@H](CCCNC(=N)N)NC(=O)[C@H](Cc2c[nH]cn2)NC(=O)[C@H](CC(C)C)NC1=O)[C@@H](C)O)C(C)C [S-pep7A, Ac-VTRRXLHRXFDTLA] (Ac-VTRR[S5]LHR[S5]FDTLA-OH; staple 5-9; C-terminus assumed)",EC50,[1],9.6 µM
same,concentration at which toxicity / cell death was observed in the plaque assays,[7],50 µM
"CC(=O)N[C@@H](CCCNC(=N)N)C(=O)N[C@@H](CCCNC(=N)N)C(=O)N[C@@]1(C)CCCC=CCCCCCC[C@](C)(C(=O)N[C@@H](CC(C)C)C(=O)N[C@@H](C)C(=O)O)NC(=O)[C@H](CC(=O)O)NC(=O)[C@H](Cc2ccccc2)NC(=O)[C@H](C)NC(=O)[C@H](CCCNC(=N)N)NC(=O)[C@H](Cc2c[nH]cn2)NC(=O)[C@H](CC(C)C)NC1=O [S-pep4, Ac-RRXLHRAFDZLA] (Ac-RR[S5]LHRAFD[R8]LA-OH; staple 3-10; C-terminus assumed)",concentration at which toxicity / cell death was observed in the plaque assays,[7],12.5 µM
Ac-ETRRMLHRAFDTLA [Native peptide (N-pep)],IC50 of in vitro processive DNA synthesis directed by recombinant UL30 and UL42,[8],> 200 µM
